How the values were obtained:
Format in all cases: in vivo
uterine bleeding [1] = assay: Case: person with stage III Hodgkin disease, prevention of uterine bleeding during chemotherapy and irradiation; settings: 10 mg/day orally, started before chemotherapy (MOPP) and irradiation
From the text: A person is consulting for pneumonia. They report a recent history of night sweats and weight loss. […] The diagnosis is a stage III of Hodgkin disease. Their condition indicates chemotherapy (MOPP) and extended irradiation. The main risk of the proposed therapy is bone marrow suppression. This is life-threatening by exposing the patient to severe infection and septicemia, but it is also associated with severe thrombopenia and diffuse bleeding including uterine bleeding. In order to prevent uterine bleeding, before initiating specific treatment for their Hodgkin disease, they are orally administered 10 mg/day of CDB-2914. Following initiation of chemotherapy and irradiation, severe bone marrow suppression is recorded and the patient is admitted in aseptic unit. […] CBD2914 administration is maintained as long as coagulation parameters are not normalized.

uterine bleeding [2] = assay: Case: person with Acute Lymphotic Leukemia, thrombocytopenia and uterine bleeding, oral treatment
Experimental: A post-pubertal person is consulting for fever, infections, uterine bleeding, petechia and dyspnea. Blood test identifies anemia (Hb 7.8 g/dL), normal leucocyte count (WBC 8657 cells/μL) and thrombocytopenia (platelets: 13.476 cells/mm^3). […] A diagnosis of Acute Lymphotic Leukemia is confirmed. The patient undergoes blood and platelet transfusion to correct for anemia and coagulation disorder. On the same day, they start taking orally 10 mg/day of CDB-2914. […] On that day, Hb is 9.9 g/dL; WBC 6345 cells/μL; and platelet count is 42 000 cells/mm^3. They continue taking orally 10 mg/day of CDB2914 for controlling abnormal uterine bleeding. […] After 3 months, they achieve remission, Hb is 13.1 g/dL; leucocyte count is normal, platelet count is 176 000 cells/mm^3. Bone marrow biopsy confirmed normalization.

uterine bleeding [3] = assay: Case: person on anticoagulant therapy with menorrhagia, oral treatment
Experimental: A moderate smoker with a BMI at 32 is treated with anticoagulant therapy for an episode of pulmonary embolism resulting from a deep venous thrombosis in a leg. Despite effort to adapt their anticoagulation therapy, their menstruations are heavy (menorrhagia) and last for up to two weeks. Their Hb is at 9.2 gr/dL. […] Their thrombo-embolic condition precludes any therapy with oestrogens or progestins. Given, the absence of negative metabolic and pro-thrombotic effect of SPRM, they are orally administered 25 mg/day of Proellex® (CDB-4124). […] Their Hb progressively returned to normal (>12 gd/dL).

Structure (SMILES) | uterine bleeding despite severe thrombopenia (uterine bleeding [1]) | uterine bleeding during continued treatment (uterine bleeding [2]; 10 mg/day orally, 3 months, several episodes of thrombopenia and chemotherapy cycles, except for a few spotting) | time following initiation of treatment until uterine bleeding is stopped (uterine bleeding [2]; 10 mg/day orally, blood and platelet transfusion on the same day) | menstrual bleeding after treatment is stopped (uterine bleeding [2]; after 3 months, remission) | uterine bleeding after start of treatment (uterine bleeding [3]; 25 mg/day orally) | uterine bleeding during the 12 weeks of anticoagulation therapy (uterine bleeding [3]; 25 mg/day orally) | Hb (uterine bleeding [3]; 25 mg/day orally, 9.2 gr/dL before treatment, progressively returned to normal) | menstruations after treatment is stopped (uterine bleeding [3]; after anticoagulation therapy is stopped)
CC(=O)O[C@]1(C(C)=O)CC[C@H]2[C@@H]3CCC4=CC(=O)CCC4=C3[C@@H](c3ccc(N(C)C)cc3)C[C@@]21C [CDB-2914] | remains in amenorrhea | remains in amenorrhea | 5 days | regular, normal menstrual bleeding are restored |  |  |  | 
COCC(=O)[C@@]1(OC(C)=O)CC[C@H]2[C@@H]3CCC4=CC(=O)CCC4=C3[C@@H](c3ccc(N(C)C)cc3)C[C@@]21C [Proellex, 17[alpha]-acetoxy-21-methoxy-11β-[4-N,N-dimethylaminophenyl]-19-norpregna-4,9-diene-3,20-dione] |  |  |  |  | stopped after a few days | remain amenorrheic | > 12 gd/dL | resumed normal menstruations

From US8569274B2, “Progesterone antagonist and selective progesterone modulator in the treatment of excessive uterine bleeding” (Preglem S.A., priority 2007, dated 2013)
